In patent publication US7491849B2, “Oligoamine compounds and derivatives thereof for cancer therapy” (priority 2001, dated 2009):

Experiments:
Calf-thymus DNA = Calf-thymus DNA aggregation (absorbance at 320 nm); assay type: biochemical; details: 50 mM NaCl, 1 mM Na-cacodylate pH 7.0
Procedure: Calf-thymus DNA aggregation by spermine and oligoamines.
Test for DNA Aggregation: DNA aggregation was studied using a Perkin-Elmer Lambda 25 UV/visible spectrophotometer connected to a PTP 6 heating unit using a previously published procedure (see Basu, H S and Marton, L J, “The interaction of spermine and pentamines with DNA,” Biochemical Journal 244:243-246 (1987)). Aggregation was determined in 50 mM NaCl, 1 mM Na-cacodylate pH 7.0 buffer by observing the increase in DNA absorbance (approximately 0.5 A260 units) at 320 nm.

PC-3 = assay: MTT assay, tumor cell growth, PC-3; assay type: cell-based; details: 6 days incubation, read-out: ID50 (μM) values for Human Tumor Cell Lines, PC-3
Procedure: (§1) Effect of Saturated Oligoamines on Human Prostate Tumor Cell Growth by the MTT assay. Saturated oligoamines inhibited prostate cancer cell growth in vitro. DU-145 cells were most sensitive and PC-3 cells were less sensitive to the effects of oligoamines. In general, ID50 values of less than 0.5 μM were obtained (Table 2). Even though the PC-3 cells were relatively more resistant to the oligoamines, at a 5 μM concentration the oligoamines reduced the cell number to less than 1% of the control on day 6 of incubation. Tissue cultures and the MTT assay were performed as follows.
(§2) Tissue Culture. Cells were seeded into 75 cm^2 culture flasks with 15 ml of Eagle's minimal essential medium supplemented with 10% fetal calf serum and nonessential amino acids. The flasks were incubated in a humidified 95% air/5% CO2 atmosphere. The cells were grown for at least 24 h to ensure that they are in the log phase of growth and then they were treated with the oligoamines. Cells were harvested by treatment for 5 min with STV (saline A, 0.05% trypsin, 0.02% EDTA) at 37° C. The flasks were rapped on the lab bench, pipetted several times and aliquots of cell suspension were withdrawn and counted using a Coulter particle counter that has been standardized for counting each cell line using a hemacytometer.
(§3) MTT Assay: Trypsinized cell suspensions were diluted to seed 80 μl suspensions containing 500 cells in each well of a 96 well Corning microtiter plate and incubated overnight at 37° C. in a humidified incubator in 5% CO2. 20 μl of appropriately diluted stock solution of each drug were added to the middle 8 columns of cell suspension in the microtiter plates. Each drug concentration was run in quadruplicate. Outer columns of the plates were used for buffer controls. Cells were incubated with the drug for 6 days at 37° C. in 5% CO2/H2O atmosphere. 25 μl of 5 mg/ml solution of 3-(4,5-dimethylthiazol-2-yl)-2,5-diphenyl tetrazolium bromide (MTT) were added to each well and incubated for 4 hours at 37° C. in 5% CO2/H2O incubator. Cells were lysed by incubating overnight with 100 μl lysis buffer (500 ml of the lysis buffer contains: 100 g lauryl sulfate (SDS), 250 ml of N,N-dimethylformamide, and 2 ml of glacial acetic acid, made up to volume with water; pH 4.8).
(§4) The color was monitored at room temperature at 570 nm in a E-max Precision Microplate Reader (Molecular Devices Corporation, Sunnyvale, Calif.) and data was analyzed using cell survival software supplied by Molecular Devices Corporation.

DU145 = assay: MTT assay, tumor cell growth, DU145; assay type: cell-based; details: 6 days incubation, read-out: ID50 (μM) values for Human Tumor Cell Lines, DU145
Procedure: as §1, §2, §3, §4

PC-3 Cells = assay: Cellular polyamine and oligoamine levels, PC-3 cells (HPLC); assay type: cell-based
Procedure: (§5) Cellular Uptake of Oligoamines. There was considerable uptake of oligoamines by the cancer cell lines; see Table 3A (DuPro cells) and Table 3B (PC-3 cells). […] While not wishing to be limited by any particular theory of operation, the cytotoxicity is likely related to their strong aggregation effect on DNA.
(§6) Polyamine Analysis. An appropriate number of cells were taken from harvested samples and centrifuged at 1000 rpm at 4° C. for 5 min. The cells were washed twice with chilled Dulbecco's isotonic phosphate buffer (pH 7.4) by centrifugation at 1000 rpm at 4° C. and resuspended in the same buffer. After the final centrifugation, the supernatant was decanted, and […] of 8% sulfosalycilic acid was added to the cell pellet. The cells were sonicated, and the mixture was kept at 4° C. for at least 1 h. After centrifugation at 8000 g for 5 min, the supernatant was removed for analysis. An appropriate volume (50-100 μl) was fluorescence-labeled by derivatizing with dansyl chloride. Labeled polyamines were loaded onto a C-18 high-performance liquid chromatography column and separated by gradient elution with acetonitrile/water at 50° C. Peaks were detected and quantitated using Shimadzu HPLC fluorescence monitor coupled with a Spectra-Physics peak integrator. Because polyamine levels vary with environmental conditions, control cultures were sampled for each experiment.

LnCap = assay: MTT assay, tumor cell growth, LnCap; assay type: cell-based; details: 6 days incubation, read-out: ID50 (μM) values for Human Tumor Cell Lines, LnCap
Procedure: as §1, §2, §3, §4

DuPro Cells = assay: Cellular polyamine and oligoamine levels, DuPro cells (HPLC); assay type: cell-based
Procedure: as §5, §6

[1] = Solubility in water for injection; assay type: physicochemical; details: dosing solution, 6.25 mg/kg in 0.1 mL/10 g body weight
Procedure: Response of implanted sc DU-145 prostate tumors to treatment with SL-11159 and SL-11226. This experiment evaluates the antitumor efficacy of SLIL Biomedical Corporation compounds (SL-11159, SL-11226) against subcutaneously-implanted DU-145 human prostate tumor xenografts in male NCr-nu (line 3A10F17T1) mice. All compounds were tested at a single dose level when administered intravenously (iv), at 6.25 mg/kg. Both SL-11159 and SL-11226 were prepared in water for injection (soluble); the injection volume was 0.1 mL/10 g body weight.

DuPro = assay: MTT assay, tumor cell growth, DuPro; assay type: cell-based; details: 6 days incubation, read-out: ID50 (μM) values for Human Tumor Cell Lines, DuPro
Procedure: as §1, §2, §3, §4

[2] = PC-3, Day 4 of Treatment, analog conc. 1 μM
[3] = PC-3, Day 4 of Treatment, analog conc. 5 μM
[4] = PC-3, Day 6 of Treatment, analog conc. 1 μM
[5] = Day 4 of Treatment, analog conc. 0.8 μM
[6] = Day 4 of Treatment, analog conc. 1.6 μM
[7] = Day 6 of Treatment, analog conc. 0.8 μM

Structure (SMILES): CCNCCCCNCCCCNCCCCNCCCCNCCCCNCCCCNCCCCNCCCCNCCCCNCC.Cl.Cl.Cl.Cl.Cl.Cl.Cl.Cl.Cl.Cl [SL-11159]
- Conc. (μM) at the start of DNA Aggregation (Calf-thymus DNA): 2.5 µM
- IC50 (PC-3): 0.6 µM
- IC50 (DU145): 0.15 µM
- Polyamine levels, Analog (cellular oligoamine level) (PC-3 Cells; [2]): 0.513 nmoles/10^6 cells
- Polyamine levels, Put (PC-3 Cells; [2]): 0.525 nmoles/10^6 cells
- Polyamine levels, Spd (PC-3 Cells; [2]): 0.531 nmoles/10^6 cells
- Polyamine levels, Spm (PC-3 Cells; [2]): 0.300 nmoles/10^6 cells
- Polyamine levels, Analog (cellular oligoamine level) (PC-3 Cells; [3]): 0.388 nmoles/10^6 cells
- Polyamine levels, Put (PC-3 Cells; [3]): 0.670 nmoles/10^6 cells
- Polyamine levels, Spm (PC-3 Cells; [3]): 0.240 nmoles/10^6 cells
- Polyamine levels, Analog (cellular oligoamine level) (PC-3 Cells; [4]): 1.026 nmoles/10^6 cells
- Polyamine levels, Put (PC-3 Cells; [4]): 0.640 nmoles/10^6 cells
- IC50 (LnCap): 0.25 µM
- Polyamine levels, Analog (cellular oligoamine level) (DuPro Cells; [5]): 0.525 nmoles/10^6 cells
- Polyamine levels, Put (DuPro Cells; [5]): 0.560 nmoles/10^6 cells
- Polyamine levels, Analog (cellular oligoamine level) (DuPro Cells; [6]): 0.513 nmoles/10^6 cells
- Polyamine levels, Put (DuPro Cells; [6]): 0.137 nmoles/10^6 cells
- solubility in water for injection [1]: soluble
- IC50 (DuPro): 0.3 µM

Structure (SMILES): CCNCCCCNCCCCNCCCCNCCCCNCCCCNCCCCNCCCCNCCCCNCCCCNCCCCNCCCCNCC.Cl.Cl.Cl.Cl.Cl.Cl.Cl.Cl.Cl.Cl.Cl.Cl [SL-11226]
- Conc. (μM) at the start of DNA Aggregation (Calf-thymus DNA): 2.2 µM
- IC50 (PC-3): 0.14 µM
- IC50 (DU145): 0.08 µM
- Polyamine levels, Analog (cellular oligoamine level) (PC-3 Cells; [2]): 0.021 nmoles/10^6 cells
- Polyamine levels, Put (PC-3 Cells; [2]): 0.573 nmoles/10^6 cells
- Polyamine levels, Analog (cellular oligoamine level) (PC-3 Cells; [3]): 0.026 nmoles/10^6 cells
- Polyamine levels, Put (PC-3 Cells; [3]): 0.985 nmoles/10^6 cells
- Polyamine levels, Spd (PC-3 Cells; [3]): 0.071 nmoles/10^6 cells
- IC50 (LnCap): 0.15 µM
- Polyamine levels, Analog (cellular oligoamine level) (DuPro Cells; [5]): 0.032 nmoles/10^6 cells
- Polyamine levels, Put (DuPro Cells; [5]): 0.593 nmoles/10^6 cells
- Polyamine levels, Spd (DuPro Cells; [5]): 0.017 nmoles/10^6 cells
- Polyamine levels, Spm (DuPro Cells; [5]): 0.067 nmoles/10^6 cells
- Polyamine levels, Analog (cellular oligoamine level) (DuPro Cells; [7]): 0.022 nmoles/10^6 cells
- Polyamine levels, Put (DuPro Cells; [7]): 0.548 nmoles/10^6 cells
- solubility in water for injection [1]: soluble
- IC50 (DuPro): 0.11 µM
